Assay results published in US20100317729A1 (GW Pharma Limited, priority 2007, published 2010).

Tests used:
CB1 receptor [1] = biological target: T1, CB1 receptor (Mus musculus, UniProt P47746); test: [35S]GTPγS binding assay, mouse brain membranes; format: biochemical
T1 construct: membranes prepared from healthy brain tissue, which is densely populated with CB1 but not CB2 receptors; from tissue; host or cells: mouse brain membranes
Procedure: (§1) Nonspecific binding was measured in the presence of 30 μM GTPγS.
The concentrations of [^35S]GTPγS and GDP present in the assay varied depending on whether the assay was conducted with mouse brain or transfected cell membranes.
Additionally, mouse brain membranes were preincubated for 30 minutes at 30° C. with 0.5 U ml^−1 adenosine deaminase to remove endogenous adenosine.
(§2) The apparent dissociation constant (KB) values for antagonism of agonists by THCV in the vas deferens or [^35S]GTPγS binding assay have been calculated by Schild analysis from the concentration ratio, defined as the concentration of an agonist that elicits a response of a particular size in the presence of a competitive reversible antagonist at a concentration, B, divided by the concentration of the same agonist that produces an identical response in the absence of the antagonist.
(§3) Mean values have been compared using Student's two-tailed t-test for unpaired data or one-way analysis of variance (ANOVA) followed by Dunnett's test (GraphPad Prism). A P-value <0.05 was considered to be significant.

hCB2 receptors = biological target: T2, hCB2 receptors (Homo sapiens, UniProt P34972); test: [35S]GTPγS binding assay, CHO-hCB2 cell membranes; format: biochemical; settings: for KB-value times less than Ki-value: CHO cell membranes, KB ([35S]GTPγS) versus Ki ([3H]CP55940 displacement)
T2 construct: expressed in transfected cells; host or cells: CHO cells
Procedure: as §1
The concentrations of [^35S]GTPγS and GDP present in the assay varied depending on whether the assay was conducted with mouse brain or transfected cell membranes. When the assay was conducted with mouse brain membranes, 0.1 nM [^35S]GTPγS and 30 μM GDP were present, whereas the corresponding concentrations present when the assay was conducted with transfected cell membranes were 1 nM and 320 μM respectively.
Additionally, mouse brain membranes were preincubated for 30 minutes at 30° C. with 0.5 U ml^−1 adenosine deaminase to remove endogenous adenosine. Agonists and antagonists were stored as a stock solution of 1 or 10 mM in DMSO, the vehicle concentration in all assay tubes being 0.11% DMSO.
Net agonist-stimulated [^35S]GTPγS binding values were calculated by subtracting basal binding values (obtained in the absence of agonist) from agonist-stimulated values (obtained in the presence of agonist) as detailed elsewhere (Ross et al., 1999a).
as §2, §3

[2] = clinical study, at least some of the patients; cited from earlier work
vas deferens = test: Electrically-evoked twitch response of the vas deferens; settings: at concentrations that antagonise cannabinoids
From the text: Inhibition of the electrically-evoked twitch response of the vas deferens has been expressed in percentage terms and this has been calculated by comparing the amplitude of the twitch response after each addition of a twitch inhibitor with its amplitude immediately before the first addition of the inhibitor. Contractile responses to phenylephrine and β,γ-methylene-ATP have been expressed as increases in tension (g).
as §2

CB1 receptor [3] = biological target: T1, CB1 receptor; test: Radioligand displacement assay, mouse brain membranes; format: binding
Procedure: Binding was initiated by the addition of either the brain membranes (33 μg protein per tube) or the transfected hCB2 cells (25 μg protein per tube).
All assays were performed at 37° C. for 60 min before termination by addition of ice-cold wash buffer (50 mM Tris buffer, 1 mg ml^−1 bovine serum albumin, pH 7.4) and vacuum filtration using a 24-well sampling manifold and GF/B filters that had been soaked in wash buffer at 4° C. for at least 24 h.
Each reaction tube was washed six times with a 1.2 ml aliquot of wash buffer. The filters were oven-dried for 60 min and then placed in 5 ml of scintillation fluid. Radioactivity was quantified by liquid scintillation spectrometry.
Specific binding was defined as the difference between the binding that occurred in the presence and absence of 1 μM unlabelled CP55940.
Values are expressed as means and variability as s.e.mean or as 95% confidence limits.

T1 sequence (P47746 whole entry): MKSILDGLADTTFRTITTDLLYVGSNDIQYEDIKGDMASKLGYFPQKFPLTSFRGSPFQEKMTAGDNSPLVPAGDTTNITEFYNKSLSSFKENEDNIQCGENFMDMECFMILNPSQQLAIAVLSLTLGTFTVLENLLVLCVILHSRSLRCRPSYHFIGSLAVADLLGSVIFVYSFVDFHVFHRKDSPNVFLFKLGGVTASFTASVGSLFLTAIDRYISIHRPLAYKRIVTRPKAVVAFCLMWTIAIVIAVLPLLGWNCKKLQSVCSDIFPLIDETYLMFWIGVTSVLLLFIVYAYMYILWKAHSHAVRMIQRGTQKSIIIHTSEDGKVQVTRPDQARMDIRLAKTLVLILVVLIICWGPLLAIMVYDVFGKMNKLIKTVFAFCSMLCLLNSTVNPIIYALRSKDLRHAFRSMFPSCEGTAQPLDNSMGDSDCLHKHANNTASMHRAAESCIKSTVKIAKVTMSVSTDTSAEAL
T2 sequence (P34972 whole entry): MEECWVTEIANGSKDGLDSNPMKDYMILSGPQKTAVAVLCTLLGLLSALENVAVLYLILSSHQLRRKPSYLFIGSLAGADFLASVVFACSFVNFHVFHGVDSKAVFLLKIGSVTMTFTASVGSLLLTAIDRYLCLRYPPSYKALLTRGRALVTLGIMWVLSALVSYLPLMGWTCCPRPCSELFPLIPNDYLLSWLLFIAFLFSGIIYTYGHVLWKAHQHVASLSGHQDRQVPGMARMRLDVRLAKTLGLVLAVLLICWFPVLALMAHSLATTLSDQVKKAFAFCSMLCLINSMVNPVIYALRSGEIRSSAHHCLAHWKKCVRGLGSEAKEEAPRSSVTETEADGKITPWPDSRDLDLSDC

C=C(C)[C@@H]1CCC(C)=C[C@H]1c1c(O)cc(CCCCC)cc1O [CBD, cannabidiol]
inhibitory effect on [35S]GTPγS binding compared with SR141716A (CB1 receptor [1]; 10 μM, both compounds, mouse brain membrane): greatly exceeded that of SR141716A
inhibition of [35S]GTPγS binding to the mouse brain membrane (CB1 receptor [1]; compound alone at 1 and 10 μM): significant inhibition
KB-value times less than Ki-value (hCB2 receptors): 65 times

Cc1c(C(=O)NN2CCCCC2)nn(-c2ccc(Cl)cc2Cl)c1-c1ccc(Cl)cc1 [SR141716A]
depression in patients enrolled in the trials [2]: significant increase in depression

CCCc1cc(O)c2c(c1)OC(C)(C)[C@@H]1CCC(C)=C[C@@H]21 [THCV, tetrahydrocannabidivarin]
effect by itself on the ability of [35S]GTPγS to bind (CB1 receptor [1]; mouse brain membranes, at concentrations that antagonise cannabinoids): did not affect
effect by itself on the ability of [35S]GTPγS to bind (hCB2 receptors; CHO-hCB2 cell membranes, at concentrations that antagonise cannabinoids): did not affect
effect by itself on the amplitude of the electrically-evoked contractions (vas deferens): did not affect

CCCCCCC(C)(C)c1ccc([C@@H]2C[C@H](O)CC[C@H]2CCCO)c(O)c1 [[^3H]CP55940]
Kd (CB1 receptor [3]): 2.31 nM

SR144528 [reference compound]
KB-value times less than Ki-value (hCB2 receptors): 15 times
